Data on 14 molecules can be found in ChEMBL document CHEMBL3112456, “Dual inhibition of HCV and HIV by ring-expanded nucleosides containing the 5:7-fused imidazo[4,5-e][1,3]diazepine ring system. In vitro results and implications” (Bioorg Med Chem Lett, 2014).

Data set [1] deals with Hepacivirus hominis. Briefly: Inhibition of helicase activity of HCV NTPase/helicase using radio-labelled double-stranded RNA as substrate after 30 mins.
Data set [2] is described as follows: Inhibition of helicase activity of HCV NTPase/helicase using radio-labelled double-stranded DNA as substrate after 30 mins. Also on record: species or system Hepacivirus hominis.
For the next data set, the system named is Huh-7. Briefly: Cytotoxicity against human HuH7 cells assessed as beta-actin levels relative to control. Type of data set: cell-based.
A short description of data set [3]: Cytotoxicity against human BM4-5 cells after 5 days by Neutral Red dye assay. It is filed as cell-based. Conditions: bm4-5, 120 h.
Data set [4] concerns Hepacivirus hominis. In words: Inhibition of NTPase activity of HCV NTPase/helicase using 1 x 10^-5 M gamma-[32P]ATP as substrate up to 0.7 mM after 30 mins.
For data set [5], the system named is Hepacivirus hominis. In words: Inhibition of NTPase activity of HCV NTPase/helicase using 105 microM gamma-[32P]ATP as substrate up to 0.7 mM after 30 mins.
For data set [6], the system named is Hepatitis C virus. Briefly: Antiviral activity against HCV genotype 1b infected in human BM4-5 cells reduction in RNA level after 5 days by luciferase reporter gene assay relative to control. It is filed as functional, organism-based, Hepacivirus hominis. Conditions: BM4-5, 120 h.
Data set [7] can be described thus: Selectivity index, ratio of beta-actin level in human HuH7 cells to viral RNA level in HCV infected in human Huh7 cells. Also on record: species or system Huh-7.
For data set [8], the system named is Hepatitis C virus. Briefly: Antiviral activity against HCV infected in human Huh7 cells assessed as reduction in RNA level by luciferase reporter gene assay relative to control. It is filed as functional, Hepacivirus hominis, Huh-7. Also on record: scale not given: the % may be the effect or the level left.
For data set [9], the system named is Hepacivirus hominis. Briefly: Inhibition of helicase activity of HCV NTPase/helicase using radio-labelled double-stranded DNA as substrate up to 300 ug/ml after 30 mins.
Data set [10] deals with Hepacivirus hominis. Briefly: Inhibition of helicase activity of HCV NTPase/helicase using radio-labelled double-stranded RNA as substrate up to 300 ug/ml after 30 mins.
Data set [11] deals with Human immunodeficiency virus. Briefly: Antiviral activity against HIV. Type of data set: functional, organism-based.

Each structure is given as a SMILES string. pIC50: −log10 of the molar value. Converted amounts (≈) assume the structure as drawn. The source made the active and inactive calls. The rule behind the calls is not given here.

What is called IC50 is the concentration that inhibits the measured activity by half. In general, pIC50 refers to the IC50 on a negative log10 scale, so that one unit is a factor of ten. For `CCCCCCCCCCCCCCCCCCNc1nc(=O)c2ncn([C@@H]3C[C@H](O)[C@@H](CO)O3)c2c(=O)[nH]1`, the inhibition result in the data set on Hepacivirus hominis [1] was “Active”. In [2], the IC50 is 5.5 µg/mL (≈ 10 µM). Moreover, the results for the Activity (with Huh-7; in data set [3]; with Hepatitis C virus [8]) were 99%, “Non-toxic” and 10%, respectively. In addition, the inhibition entry with Hepacivirus hominis [4] and in the data set on Hepacivirus hominis [5] was “inactive” each time. Moreover, in the data set with Hepatitis C virus [6], the pIC50 is 4.74. The “Selectivity Index” value in data set [7] is 9.9.
As to `CCCCCCCCCCNc1nc(=O)c2ncn([C@@H]3C[C@H](O)[C@@H](CO)O3)c2c(=O)[nH]1`, the inhibition entry in the data set on Hepacivirus hominis [9] and with Hepacivirus hominis [10] was “inactive” in each case.
On to `CCCCCCCCCCCCCCNc1nc(=O)c2ncn([C@@H]3C[C@H](O)[C@@H](CO)O3)c2c(=O)[nH]1`, for which the inhibition result with Hepacivirus hominis [9] and with Hepacivirus hominis [10] was “inactive” throughout.
Take `CCCCCCCCCCCCNc1nc(=O)c2ncn([C@@H]3O[C@H](CO)[C@@H](O)[C@H]3O)c2c(=O)[nH]1`: the inhibition result in the data set on Hepacivirus hominis [9] and with Hepacivirus hominis [10] was “inactive” throughout.
Turning to `CCCCCCCCCCCCCCNc1nc(=O)c2ncn([C@@H]3O[C@H](CO)[C@@H](O)[C@H]3O)c2c(=O)[nH]1`, the inhibition result with Hepacivirus hominis [9] and in the data set with Hepacivirus hominis [10] was “inactive” in each case.
With `CCCCCCCCCCCCCCCCCCNc1nc(=O)c2ncn([C@@H]3O[C@H](CO)[C@@H](O)[C@H]3O)c2c(=O)[nH]1`, the inhibition result in the data set with Hepacivirus hominis [1] is “Active”. Moreover, in data set [2], the IC50 came out at 6 µg/mL (≈ 10.6 µM). For the same molecule, the Activity with Huh-7 was 98%; in data set [3], “Non-toxic”; in the data set with Hepatitis C virus [8], 9%. Further, the inhibition entry with Hepacivirus hominis [4] and in the data set with Hepacivirus hominis [5] was “inactive” in each case. In the data set with Hepatitis C virus [6], this molecule showed a pIC50 of 4.80. Further, the “Selectivity Index” value in [7] amounted to 10.89.
`CCCCCCCCCCCCCCCCNc1nc(=O)c2ncn([C@@H]3O[C@H](CO)[C@@H](O)[C@H]3O)c2c(=O)[nH]1`: the inhibition entry with Hepacivirus hominis [9] and with Hepacivirus hominis [10] was “inactive” in each case.
On to `CCCCCCCCCCCCCCCCCCN`, for which the Activity entry was “inactive” in [11] and “inactive” in the data set with Hepatitis C virus [8] (Hepacivirus hominis, Huh-7).
For `CCCCCCCCNc1nc(=O)c2ncn([C@@H]3O[C@H](CO)[C@@H](O)[C@H]3O)c2c(=O)[nH]1`, the inhibition entry in the data set on Hepacivirus hominis [9] and with Hepacivirus hominis [10] was “inactive” throughout.
On to `CCCCCCCCCCNc1nc(=O)c2ncn([C@@H]3O[C@H](CO)[C@@H](O)[C@H]3O)c2c(=O)[nH]1`, for which the inhibition result in the data set with Hepacivirus hominis [9] and with Hepacivirus hominis [10] was “inactive” in each case.
Take `CCCCCCCCCCCCCCN`: the Activity entry in [11] was “inactive”; in the data set with Hepatitis C virus [8] (Hepacivirus hominis, Huh-7), “inactive”.
For `CCCCCCCCNc1nc(=O)c2ncn([C@@H]3C[C@H](O)[C@@H](CO)O3)c2c(=O)[nH]1`, the inhibition entry in the data set with Hepacivirus hominis [9] and with Hepacivirus hominis [10] was “inactive” in each case.
As for `NC(=O)c1ncn([C@@H]2O[C@H](CO)[C@@H](O)[C@H]2O)n1` [RIBAVIRIN], the Activity with Huh-7 came to 12%; in the data set with Hepatitis C virus [8] it was 89%. For the same molecule, in [7], the “Selectivity Index” value is recorded as 0.14.
Regarding `CCCCCCCCCCCCCCCCNc1nc(=O)c2ncn([C@@H]3C[C@H](O)[C@@H](CO)O3)c2c(=O)[nH]1`, the inhibition entry in the data set on Hepacivirus hominis [9] and in the data set on Hepacivirus hominis [10] was “inactive” in each case.
